Laboratory results as given in patent US9574190B2, “Screening method for peptide binding to target molecule in pH-dependent manner” (The University of Tokyo, priority 2012, dated 2017).
Bridge positions count the residues as written; N and C are the ends. Square brackets hold non-standard residues; d marks the D form. Peptide text beside a SMILES is read from it. Tyr(3-NO2) = N[C@@H](Cc1ccc(O)c([N+](=O)[O-])c1)C(=O)O; dTyr(3-NO2) = N[C@H](Cc1ccc(O)c([N+](=O)[O-])c1)C(=O)O; Arg(NO2) = N=C(NCCC[C@H](N)C(=O)O)N[N+](=O)[O-]

Biological target: T1, FcRn (Homo sapiens, UniProt P55899)
T1 construct: human soluble FcRn chemically biotinated with NHS-biotin
Assay: Biacore T100 measurement of dissociation constant of solid-phase synthesized peptide with immobilized FcRn
Type: binding
Protocol: In order to find whether a peptide alone interacts with FcRn in a pH dependent manner, the peptide 2G01D not having SGSGS on the C-terminal side of 8D-01 and amidated at the C-terminal was synthesized on a solid phase and a dissociation constant Kd binding constant was measured using Biacore T100 (GE Healthcare). FcRn was immobilized onto a sensor chip by an amine coupling method. The following is the peptide 2G01D:
On the other hand, a solid-phase synthesized peptide 2G01D was added as an analyte to a phosphate buffer having a pH 6.0 or 7.4 and a dissociation constant was measured.

koff (pH 6.0, phosphate buffer): 0.00394 s⁻¹ | kon (pH 6.0, phosphate buffer): 925000 M⁻¹ s⁻¹ | koff (pH 7.4, phosphate buffer): 0.00955 s⁻¹ | kon (pH 7.4, phosphate buffer): 32600 M⁻¹ s⁻¹
Compound: CC(C)C[C@@H]1NC(=O)[C@H](Cc2ccc(O)c([N+](=O)[O-])c2)NC(=O)[C@H](CC(C)C)NC(=O)[C@@H]2CCCN2C(=O)[C@H](CC(=O)O)NC(=O)CNC(=O)[C@H](CCCNC(=N)N[N+](=O)[O-])NC(=O)[C@H](CC(N)=O)NC(=O)[C@H](Cc2ccc(O)cc2)NC(=O)[C@H](CC(C)C)NC(=O)[C@H](Cc2ccc(O)c([N+](=O)[O-])c2)NC(=O)[C@H](Cc2ccccc2)NC(=O)[C@@H](Cc2ccc(O)c([N+](=O)[O-])c2)NC(=O)CSC[C@@H](C(=O)NCC(N)=O)NC1=O [2G01D] ({CH2CO}-[dTyr(3-NO2)]F[Tyr(3-NO2)]LYN[Arg(NO2)]GDPL[Tyr(3-NO2)]LCG-NH2; thioether N-14)
